Several values for one entry are separate records, joined by “and”; a condition that tells them apart may be missing. Equal entries are not always repeated. Where two headings read alike, the source gives them in different places.
Columns and labels:
[1] = biological target: [^3H]gabapentin site in porcine cortical membranes (Sus scrofa, UniProt O77773); details: saturation binding analyses on porcine synaptic plasma cerebral cortex membranes in the presence of L-leucine; cited from earlier work
[2] = biological target: porcine α2δ-1b-6His (SEQ ID No 9) (Sus scrofa, UniProt A0A287BIN3); details: [3H]gabapentin 10-13 nM
Description: Assays were carried out at 21° C. in a final volume of 250 μl in 96-well NEN Ni chelate flash plates. Wells were set up for both ‘total’ and ‘non-specific’ binding. Specific binding was defined as that remaining after subtraction of the average of the ‘non-specific binding’ values from the average of the ‘total’ binding values. Assay components were added in the following order (all reagents were diluted in 10 mM HEPES (pH 7.4 at 21° C.)):
Immediately after adding radioligand, flash plates were loaded in the Packard Top Count scintillation counter to follow the binding time course. Incubation time before the assay was 3 hours. The ‘[^3H] flash plate’ programme (cpm) was used to monitor activity. Specific binding was ˜98% of the ‘total’ value. Imidazole was used in the assay to optimize the specific interaction of the protein's 6His tag with the Ni flashplate.
GraphPad Prism software was used to process competition curve data and determine IC50 and hill slope values. Twelve point competition curves with half log dilution steps of test compounds were used in the experiments.

[3] = read-out: Ki, Flash plate (3 μl protein used, n = 2), single experiments, Ki = IC50/(1 + [L]/KD), 3 h incubation
[4] = read-out: Ki, Flash plate, Mean (geometric), geometric mean of n = 2

Sequence of porcine α2δ-1b-6His (SEQ ID No 9) (A0A287BIN3 25-1109 limits assumed): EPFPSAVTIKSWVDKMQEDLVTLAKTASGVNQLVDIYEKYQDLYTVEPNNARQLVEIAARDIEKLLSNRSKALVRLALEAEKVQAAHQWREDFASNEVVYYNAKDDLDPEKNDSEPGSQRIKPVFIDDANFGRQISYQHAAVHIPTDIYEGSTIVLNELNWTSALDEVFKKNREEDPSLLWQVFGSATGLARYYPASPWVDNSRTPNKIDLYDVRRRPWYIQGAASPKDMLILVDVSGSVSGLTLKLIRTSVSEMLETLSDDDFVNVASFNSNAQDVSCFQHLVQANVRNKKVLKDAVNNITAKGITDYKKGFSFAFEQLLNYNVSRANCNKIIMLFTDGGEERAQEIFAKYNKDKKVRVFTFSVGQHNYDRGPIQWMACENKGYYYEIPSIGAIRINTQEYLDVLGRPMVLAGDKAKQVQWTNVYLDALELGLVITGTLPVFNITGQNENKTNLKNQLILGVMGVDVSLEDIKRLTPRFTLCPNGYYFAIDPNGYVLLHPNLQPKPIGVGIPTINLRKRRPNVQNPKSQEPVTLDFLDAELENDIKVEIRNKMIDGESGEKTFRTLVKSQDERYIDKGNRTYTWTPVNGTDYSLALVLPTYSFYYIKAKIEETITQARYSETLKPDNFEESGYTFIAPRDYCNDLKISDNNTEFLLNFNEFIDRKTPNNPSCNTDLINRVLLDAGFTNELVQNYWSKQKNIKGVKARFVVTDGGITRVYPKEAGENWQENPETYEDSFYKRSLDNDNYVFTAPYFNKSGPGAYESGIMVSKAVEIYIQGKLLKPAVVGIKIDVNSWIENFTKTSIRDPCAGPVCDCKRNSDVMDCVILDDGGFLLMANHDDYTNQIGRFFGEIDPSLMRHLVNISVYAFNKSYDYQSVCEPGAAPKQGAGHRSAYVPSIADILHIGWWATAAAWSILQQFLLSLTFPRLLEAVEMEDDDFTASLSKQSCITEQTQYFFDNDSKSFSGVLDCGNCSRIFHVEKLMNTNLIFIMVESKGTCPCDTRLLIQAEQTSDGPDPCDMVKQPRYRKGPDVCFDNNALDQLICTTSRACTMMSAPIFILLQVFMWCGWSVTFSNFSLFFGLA
Sequence of [^3H]gabapentin site in porcine cortical membranes (O77773 25-1091): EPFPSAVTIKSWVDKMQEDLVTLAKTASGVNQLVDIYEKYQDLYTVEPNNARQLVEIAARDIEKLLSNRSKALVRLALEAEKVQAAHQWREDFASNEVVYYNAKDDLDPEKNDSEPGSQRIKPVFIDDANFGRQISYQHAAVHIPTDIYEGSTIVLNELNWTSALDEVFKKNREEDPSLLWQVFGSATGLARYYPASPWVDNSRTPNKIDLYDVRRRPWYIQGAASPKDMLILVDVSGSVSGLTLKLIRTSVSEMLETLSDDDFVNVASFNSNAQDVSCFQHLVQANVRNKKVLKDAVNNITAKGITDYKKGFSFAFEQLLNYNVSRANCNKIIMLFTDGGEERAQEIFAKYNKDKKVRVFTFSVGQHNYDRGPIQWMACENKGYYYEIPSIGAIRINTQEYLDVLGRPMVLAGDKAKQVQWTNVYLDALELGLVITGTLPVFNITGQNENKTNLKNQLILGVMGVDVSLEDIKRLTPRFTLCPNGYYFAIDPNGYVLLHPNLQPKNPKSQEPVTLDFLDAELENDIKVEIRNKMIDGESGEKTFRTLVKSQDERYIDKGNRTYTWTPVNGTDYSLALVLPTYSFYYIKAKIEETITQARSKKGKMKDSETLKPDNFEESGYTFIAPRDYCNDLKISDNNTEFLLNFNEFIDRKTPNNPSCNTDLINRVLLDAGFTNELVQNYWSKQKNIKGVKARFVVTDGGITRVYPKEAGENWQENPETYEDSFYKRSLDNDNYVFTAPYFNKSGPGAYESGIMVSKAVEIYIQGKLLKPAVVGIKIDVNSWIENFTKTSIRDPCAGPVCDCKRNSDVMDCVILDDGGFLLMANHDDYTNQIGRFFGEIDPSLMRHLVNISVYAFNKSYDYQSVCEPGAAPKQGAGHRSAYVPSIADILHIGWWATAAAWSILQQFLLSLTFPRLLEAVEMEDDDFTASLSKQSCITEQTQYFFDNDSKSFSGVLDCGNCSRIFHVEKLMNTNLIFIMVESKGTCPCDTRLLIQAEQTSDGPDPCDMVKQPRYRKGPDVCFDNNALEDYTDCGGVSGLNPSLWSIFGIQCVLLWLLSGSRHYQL

Row | SMILES | interaction with the [3H]gabapentin binding site [1] | Ki [2, 3] | Ki [2, 4] [nM]
1 | CC(C)C[C@H](N)C(=O)O [L-Leucine] | competitive interaction | – | –
2 | CC(C)C[C@@H](CN)CC(=O)O [(R-)-3-isobtyl GABA, (R−)-3-Isobutyl GABA] | – | 157 nM and 207 nM | 180
3 | CC(C)C[C@H](CN)CC(=O)O [(S+)-3-isobutyl GABA] | – | 10.9 nM and 7.58 nM | 9.09

From US20030073132A1, “Method for the screening of alpha2delta-1 subunit binding ligands” (priority 1999, published 2003)
